Assay: Human HepG2 cell viability assay in 384 well format
Format: toxicity, cell-based
Design: dose 125 nL, time 70.5 hour; cytotoxicity at 70.5 h: concentration not given beside the values
Details: HepG2 cells, read-out: Inhibition

| SMILES | cytotoxicity at 70.5 h |
| --- | --- |
| Cc1nccn1-c1ncccc1CNC(=O)c1ccc(O)nc1 | -10.6% |
| Cc1ccccc1C(C)NC(=O)c1ccc(=O)n(C)c1 (configuration not stated) | -4.64% |
| Cc1nnc(CN(Cc2cccc(Cl)c2)C(C)C)o1 | -16.1% |
| CS(=O)(=O)Cc1cc(Cl)c2c(c1)OCCCO2 | -3.38% |
| CC(C)C(C)(C#N)NC(=O)Cn1cc(-c2ccccc2)cn1 (configuration not stated) | -5.67% |
| Cc1noc(C)c1CNc1c(N2CCCC2)cccc1N1CCCC1 | -5.49% |
| CSCCC(NC(=O)c1ccc2ccccc2n1)C(=O)O (configuration not stated) | 4.89% |
| CC(C)(C)n1cc(C(=O)O)c(-c2ccc(F)cc2F)n1 | -18.2% |
| CC(C)C(C)(C#N)NC(=O)Cn1cc(Cl)cn1 (configuration not stated) | -6.35% |
| CCN(Cc1csc(CS(C)(=O)=O)n1)c1cccc(F)c1 | -7.29% |
| Cc1nccn1-c1ccc(CNC(=O)c2ccc([S+](C)[O-])cc2)cn1 (configuration not stated) | -3.4% |
| CS(=O)(=O)CCS(=O)(=O)Cc1cc(Cl)c2c(c1)OCCCO2 | -5.05% |
| CCc1c(C)nc2ccccc2c1N1CCC(C(=O)NC)CC1 | -5.91% |
| CCc1c(C)nc2ccccc2c1N1CCC(NC(C)=O)CC1 | -6.65% |
| CC1CN(C(=O)CCc2cc(Br)cs2)CCO1 (configuration not stated) | -4.33% |
| CS(=O)(=O)CCCNC1(c2ccc(Br)cc2)CCC1 | -5.79% |
| Cc1nnc(CN(Cc2ccc(Cl)c(Cl)c2)C2CC2)o1 | -3.07% |
| Cc1cc(C(=O)N2CCc3c(ncn3CCc3ccccc3)C2)on1 | -7.15% |
| CC(C)N1CCC(N(C)c2ccnc(N(C)C)n2)CC1 | -2.26% |
| Cc1cc(C)c(C(=O)N2CCc3c(ncn3CCc3ccccc3)C2)[nH]1 | -8.62% |
| Cc1nonc1C(=O)N1CCc2c(ncn2CCc2ccccc2)C1 | -7.1% |
| CN(C)c1nccc(N(C)C2CCN(CC3CCOC3)CC2)n1 (configuration not stated) | -4.93% |
| COc1c(C)cnc(CN(C)C2CCCCC2)c1C | 8.25% |
| Cc1cnn(CCNCC(=O)N(C)C(C)c2ccccc2)c1 (configuration not stated) | -10.5% |

| SMILES | cytotoxicity at 70.5 h |
| --- | --- |
| CCN1CCN(c2ccc(NC(=O)CC(C)C)c(C)c2)CC1 | -20.9% |
| CNC(=O)NC(=O)C(C)N1CCN(c2ccc(C#N)cc2F)CC1 (configuration not stated) | -12.9% |
| N#Cc1c(F)cccc1N1CCCC(C(=O)Nc2nncs2)C1 (configuration not stated) | -16.9% |
| Cc1ccc(OCCCNC(=O)CN(C)c2ccc(C#N)cn2)cc1 | 3.18% |
| COCCNC(=O)NC(=O)CNc1c(F)cccc1N1CCCC1 | -16.6% |
| COc1c(C)cnc(CN(C)C2CCN(C3CCOCC3)CC2)c1C | -0.744% |
| Cc1cnn(CCNCC(=O)NC(c2ccccc2)c2ccccc2)c1 | -16% |
| CC1(C)Cc2ccc(C(=O)NC3CCOCC3)c(O)c2O1 | 7.2% |
| O=C(Nc1cccs1)NC(CCCO)c1ccccc1 (configuration not stated) | -17.7% |
| CCNC(=O)N1CCc2ccc(NC(=O)NCC3CC3)cc21 | -12.1% |
| COc1ccccc1C(C)(C)NC(=O)NCCC(=O)NC1CCCC1 | -12.5% |
| COc1ncccc1NC(=O)NC(CCCO)c1ccccc1 (configuration not stated) | 11.2% |
| O=C(Nc1ccccn1)NC(CCCO)c1ccccc1 (configuration not stated) | -5.11% |
| Cn1cccc1C(=O)NC1(C(=O)NCC2CC2)CCCC1 | -11.4% |
| O=C1C(Nc2nccn3cnnc23)CCCN1c1ccccc1Cl (configuration not stated) | -2.45% |
| O=C1CC[C@H](C(=O)Nc2cnn(-c3ccccc3Br)c2)N1 | -16.8% |
| Cc1cc(F)ccc1N1CCCC(Nc2nccn3cnnc23)C1=O (configuration not stated) | -2.63% |
| N#Cc1ccc(F)cc1Cn1cnc(C2CCC2)cc1=O | -9.04% |
| N#Cc1cc(Cn2cnc(C3CCC3)cc2=O)ccc1F | -15.4% |
| CC(C)(C)c1nc(NS(=O)(=O)c2ccccc2F)no1 | -18.1% |
| CC(C)(C)c1nc(NS(=O)(=O)c2cccc(F)c2)no1 | -8.66% |
| CCN1CCCN(C(=O)c2ccc(NC(=O)CC(C)C)c(C)c2)CC1 | -12.9% |
| COC(=O)c1ccc(CN(C)C(=O)c2cnsn2)cc1 | -14.6% |
